Molecular target: T1, human GPR119 (Homo sapiens, UniProt Q8TDV5)
T1 construct: expressed in transfected cells; host or cells: HEK-293 cell line stably expressing recombinant GPR119
T1 sequence (Q8TDV5 1-335): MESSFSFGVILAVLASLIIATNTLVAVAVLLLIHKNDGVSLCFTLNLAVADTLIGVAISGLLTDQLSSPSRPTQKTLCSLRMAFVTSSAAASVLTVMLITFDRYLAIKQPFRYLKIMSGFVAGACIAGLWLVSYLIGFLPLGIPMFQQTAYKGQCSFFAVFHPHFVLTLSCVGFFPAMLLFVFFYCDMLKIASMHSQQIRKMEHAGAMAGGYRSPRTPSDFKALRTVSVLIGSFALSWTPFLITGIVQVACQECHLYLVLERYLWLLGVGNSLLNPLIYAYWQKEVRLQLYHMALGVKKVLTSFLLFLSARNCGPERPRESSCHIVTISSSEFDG
Assay: Functional cellular assay measuring GPR119-mediated cAMP release (HTRF), HEK-293 cells stably expressing recombinant GPR119
Assay type: cell-based
Conditions: cell line expressing human GPR119; cAMP response, 30 minutes at room temperature
Protocol: Functional Cellular Assays Measuring GPR119-Mediated cAMP Release.
Compounds of the invention, which are agonists of GPR119, were characterized by functional assays measuring the cAMP response of HEK-293 cell lines stably expressing recombinant GPR119 from man, mouse or rat, or by using a hamster cell line HIT-T15 expressing GPR119 endogenously. The cAMP content was determined using a kit based on homogenous time-resolved fluorescence (HTRF) from Cisbio Corp. (cat. no. 62AM4PEC). For preparation, cells were split into T175 culture flasks and grown to near confluency in medium (DMEM/10% FCS for HEK-293 cells, and F-12K medium/10% horse serum/2.5% FCS for HIT-T15 cells, respectively). Medium was then removed and cells washed with PBS lacking calcium and magnesium ions, followed by proteinase treatment with accutase (Sigma-Aldrich, cat. no. A6964). Detached cells were washed and resuspended in assay buffer (1×HBSS; 20 mM HEPES, 0.1% BSA, 2 mM IBMX) and cellular density determined. They were then diluted to 400000 cells/mL and 25 μL-aliquots dispensed to the wells of 96-well plates. For measurement, 25 μL of test compound in assay buffer was added and incubated for 30 minutes at room temperature. After addition of HTRF reagents diluted in lysis buffer, the plates were incubated for 1 hour, followed by measuring the fluorescence ratio at 665 vs. 620 nm. Potency of the agonists was quantified by determining the concentrations that caused 50% of the maximal response/activation (EC50). See Table 10 for exemplary data obtained using the cell line expressing human GPR119.

Compound: O=C1CCc2c(F)cc(N3CC[C@@H](Oc4ccc(OCCC5CC5)nc4)C3=O)cc21 [Example 1-08, (R)-3-[6-(2-Cyclopropyl-ethoxy)-pyridin-3-yloxv]-1-(7-fluoro-3-oxo-indan-5-yl)-pyrrolidin-2-one]
- EC50: 8 nM

Compound: O=C1CCc2c(F)cc(N3CC[C@@H](Oc4ccc(OC(F)(F)F)cc4)C3=O)cc21 [Example 3-01]
- EC50: 86 nM

Compound: CN(C)C(=O)c1cc(O[C@@H]2CCN(c3cc(F)c4c(c3)C(=O)CC4)C2=O)cnc1OCC1CC1 [Example 8-03]
- EC50: > 100000 nM

Compound: O=C1CCc2c(F)cc(N3CC[C@@H](Oc4ccc(Oc5ccc(F)cc5)nc4)C3=O)cc21 [Example 1-07]
- EC50: 87 nM

Compound: O=C1CCc2c(F)cc(N3CC[C@@H](Oc4ccc(SC5CC5)nc4)C3=O)cc21 [Example 3-16]
- EC50: 19 nM

Compound: O=C1CCc2c(F)cc(N3CC[C@@H](Oc4ccc(OC5CC5)nc4)C3=O)c(F)c21 [Example 9-02]
- EC50: 69 nM

Compound: CN1CCC[C@H]1COc1ccc(O[C@@H]2CCN(c3cc(F)c4c(c3)C(=O)CC4)C2=O)cn1 [Example 2-59]
- EC50: 2220 nM

Compound: O=C1CCc2c(F)cc(N3CC[C@@H](Oc4ccc(OCCCCCO)nc4)C3=O)cc21 [Example 2-65]
- EC50: 2380 nM

Compound: Cc1cnc(-c2ccc(O[C@@H]3CCN(c4cc(F)c5c(c4)C(=O)CC5)C3=O)cn2)s1 [Example 3-03]
- EC50: 62 nM

Compound: Cn1ccnc1COc1ccc(O[C@@H]2CCN(c3cc(F)c4c(c3)C(=O)CC4)C2=O)cn1 [Example 2-37]
- EC50: 24300 nM

Compound: O=C1CCc2c(F)cc(N3CC[C@@H](Oc4ccc(OC(CF)CF)nc4)C3=O)cc21 [Example 2-44]
- EC50: 46 nM

Compound: CCOc1ccc(O[C@@H]2CCN(c3cc(F)c4c(c3)C(=O)CC4)C2=O)cn1 [Example 2-08, (R)-3-(6-Ethoxy-pyridin-3-yloxy)-1-(7-fluoro-3-oxo-indan-5-yl)-pyrrolidin-2-one]
- EC50: 17 nM

Compound: CSc1ccc(O[C@@H]2CCN(c3cc(F)c4c(c3)C(=O)CC4)C2=O)cn1 [Example 1-13]
- EC50: 368 nM

Compound: O=C1CCc2c(F)cc(N3CC[C@@H](Oc4ccc(OCCC5CC5)cc4)C3=O)cc21 [Example 1-05]
- EC50: 45 nM

Compound: O=C1CCc2c(F)cc(N3CC[C@H](Oc4ccc(OCC5CC5)nc4)C3=O)cc21 [Example 3-12]
- EC50: 281 nM

Compound: O=C1CC[C@H](COc2ccc(O[C@@H]3CCN(c4cc(F)c5c(c4)C(=O)CC5)C3=O)cn2)O1 [Example 2-38]
- EC50: 947 nM

Compound: O=C1CCc2c(F)cc(N3CC[C@@H](Oc4ccc(OCCN5CCCC5)nc4)C3=O)cc21 [Example 2-67]
- EC50: 15000 nM

Compound: CC(Oc1ccc(O[C@@H]2CCN(c3cc(F)c4c(c3)C(=O)CC4)C2=O)cn1)C1CC1 (stereo partly drawn) [Example 2-09]
- EC50: 16 nM

Compound: O=C1CCc2c(F)cc(N3CC[C@@H](Oc4cnc(OCC5CC5)c(Br)c4)C3=O)cc21 [Example 3-19]
- EC50: 12 nM

Compound: O=C1CCc2ccc(N3CC[C@@H](Oc4ccc(OC5CC5)nc4)C3=O)cc21 [Example 1-20]
- EC50: 87 nM

Compound: CCOCCCOc1ccc(O[C@@H]2CCN(c3cc(F)c4c(c3)C(=O)CC4)C2=O)cn1 [Example 2-53]
- EC50: 21 nM

Compound: CCCCSc1ccc(O[C@@H]2CCN(c3cc(F)c4c(c3)C(=O)CC4)C2=O)cn1 [Example 3-07]
- EC50: 11 nM

Compound: O=C1CCc2c(F)cc(N3CC[C@@H](Oc4ccc(OCCCCO)nc4)C3=O)cc21 [Example 2-16]
- EC50: 832 nM

Compound: CC(CCO)CCOc1ccc(O[C@@H]2CCN(c3cc(F)c4c(c3)C(=O)CC4)C2=O)cn1 (stereo partly drawn) [Example 2-50]
- EC50: 1050 nM

Compound: O=C1CCc2c(F)cc(N3CC[C@@H](Oc4ccc(OCC(F)F)nc4)C3=O)cc21 [Example 2-35]
- EC50: 26 nM

Compound: CC(C)(CO)COc1ccc(O[C@@H]2CCN(c3cc(F)c4c(c3)C(=O)CC4)C2=O)cn1 [Example 2-04]
- EC50: 233 nM

Compound: COC(C)CCOc1ccc(O[C@@H]2CCN(c3cc(F)c4c(c3)C(=O)CC4)C2=O)cn1 (stereo partly drawn) [Example 2-33]
- EC50: 71 nM

Compound: O=C1CCc2c(Cl)cc(N3CC[C@@H](Oc4ccc(OCC5CC5)nc4)C3=O)cc21 [Example 4-01]
- EC50: 64 nM

Compound: COCC(C)Oc1ccc(O[C@@H]2CCN(c3cc(F)c4c(c3)C(=O)CC4)C2=O)cn1 (stereo partly drawn) [Example 2-05]
- EC50: 77 nM

Compound: CC(C)CCCc1ccc(O[C@@H]2CCN(c3cc(F)c4c(c3)C(=O)CC4)C2=O)cn1 [Example 3-14]
- EC50: 81 nM

Compound: O=C1CCc2c(F)cc(N3CC[C@@H](Oc4ccc(Oc5ccc(F)cc5)cc4)C3=O)cc21 [Example 1-03]
- EC50: 33 nM

Compound: CCC(COC)Oc1ccc(O[C@@H]2CCN(c3cc(F)c4c(c3)C(=O)CC4)C2=O)cn1 (stereo partly drawn) [Example 2-47]
- EC50: 138 nM

Compound: CCC(Oc1ccc(O[C@@H]2CCN(c3cc(F)c4c(c3)C(=O)CC4)C2=O)cn1)C(C)C (stereo partly drawn) [Example 2-49]
- EC50: 94 nM

Compound: COc1ccc(O[C@@H]2CCN(c3cc(F)c4c(c3)C(=O)CC4)C2=O)cn1 [Example 2-01]
- EC50: 223 nM

Compound: O=C1CCc2c(F)cc(N3CC[C@@H](Oc4ccc(OC5CCCOC5)nc4)C3=O)cc21 (stereo partly drawn) [Example 2-79]
- EC50: 64 nM

Compound: CC1(COc2ccc(O[C@@H]3CCN(c4cc(F)c5c(c4)C(=O)CC5)C3=O)cn2)COC1 [Example 2-12]
- EC50: 99 nM

Compound: CCCCN(C)C(=O)c1ccc(O[C@@H]2CCN(c3cc(F)c4c(c3)C(=O)CC4)C2=O)cn1 [Example 3-06]
- EC50: 978 nM

Compound: O=C1CCc2c(F)cc(N3CC[C@@H](Oc4ccc(OCc5cnccn5)nc4)C3=O)cc21 [Example 2-52]
- EC50: 1190 nM

Compound: CCC(C)COc1ccc(O[C@@H]2CCN(c3cc(F)c4c(c3)C(=O)CC4)C2=O)cn1 (stereo partly drawn) [Example 2-10]
- EC50: 5 nM

Compound: O=C1CCc2c(F)cc(N3CC[C@@H](Oc4ccnc(OCC5CC5)c4)C3=O)cc21 [Example 5-03]
- EC50: 40 nM

Compound: COCCCOc1cc(O[C@@H]2CCN(c3cc(F)c4c(c3)C(=O)CC4)C2=O)ccn1 [Example 5-09]
- EC50: 126 nM

Compound: O=C1CCc2ccc(N3CC[C@@H](Oc4ccc(OCC5CC5)nc4)C3=O)cc21 [Example 1-12]
- EC50: 327 nM

Compound: O=C1CCc2ccc(N3CC[C@@H](Oc4ccc(Oc5ccc(F)cc5)nc4)C3=O)cc21 [Example 1-06]
- EC50: 274 nM

Compound: CC(C)Sc1ccc(O[C@@H]2CCN(c3cc(F)c4c(c3)C(=O)CC4)C2=O)cn1 [Example 1-14]
- EC50: 33 nM

Compound: O=C1CCc2c(F)cc(N3CC[C@@H](Oc4ccc(OCC5CCC5)nc4)C3=O)cc21 [Example 2-55]
- EC50: 7 nM

Compound: CCCCCOc1cc(O[C@@H]2CCN(c3cc(F)c4c(c3)C(=O)CC4)C2=O)ccn1 [Example 5-06]
- EC50: 32 nM

Compound: O=C1CCc2c(F)cc(N3CC[C@@H](Oc4ccc(OC5CCC(O)C5)nc4)C3=O)cc21 (stereo partly drawn) [Example 2-19]
- EC50: 858 nM

Compound: O=C1CCc2c(F)cc(N3CC[C@@H](Oc4ccnc(OCCC5CC5)c4)C3=O)cc21 [Example 5-01]
- EC50: 22 nM

Compound: N#Cc1cc(O[C@@H]2CCN(c3cc(F)c4c(c3)C(=O)CC4)C2=O)cnc1OCC1CC1 [Example 8-05]
- EC50: 242 nM

Compound: CCOCCOc1ccc(O[C@@H]2CCN(c3cc(F)c4c(c3)C(=O)CC4)C2=O)cn1 [Example 2-27]
- EC50: 277 nM

Compound: O=C1CCc2c(F)cc(N3CC[C@@H](Oc4ccc(OCC(F)(F)F)nc4)C3=O)cc21 [Example 2-77]
- EC50: 44 nM

Compound: CC(C)C(C)Oc1ccc(O[C@@H]2CCN(c3cc(F)c4c(c3)C(=O)CC4)C2=O)cn1 (stereo partly drawn) [Example 2-46]
- EC50: 37 nM

Compound: CCCC(C)Oc1ccc(O[C@@H]2CCN(c3cc(F)c4c(c3)C(=O)CC4)C2=O)cn1 (stereo partly drawn) [Example 2-06]
- EC50: 18 nM

Compound: CCCCOc1ccc(O[C@@H]2CCN(c3cc(F)c4c(c3)C(=O)CC4)C2=O)cn1 [Example 2-02]
- EC50: 27 nM

Compound: O=C(O)c1cc(O[C@@H]2CCN(c3cc(F)c4c(c3)C(=O)CC4)C2=O)cnc1OCC1CC1 [Example 8-02]
- EC50: 2690 nM

Compound: O=C1CCc2c(F)cc(N3CC[C@@H](Oc4cnc(OCC5CC5)c(F)c4)C3=O)cc21 [Example 3-09]
- EC50: 12 nM

Compound: CC(C)Oc1cc(O[C@@H]2CCN(c3cc(F)c4c(c3)C(=O)CC4)C2=O)ccn1 [Example 5-08]
- EC50: 72 nM

Compound: O=C1CCc2c(F)cc(N3CC[C@@H](Oc4ccc(OC5CCCOC5)nc4)C3=O)cc21 (stereo partly drawn) [Example 2-11]
- EC50: 29 nM

Compound: O=C1CCc2c(Br)cc(N3CC[C@@H](Oc4ccc(OCC5CC5)nc4)C3=O)cc21 [Example 1-18]
- EC50: 287 nM

Compound: CC1CC1COc1ccc(O[C@@H]2CCN(c3cc(F)c4c(c3)C(=O)CC4)C2=O)cn1 (stereo partly drawn) [Example 2-26]
- EC50: 11 nM

Compound: O=C1CCc2c(F)cc(N3CC[C@@H](Oc4ccc(OCC5CCCO5)nc4)C3=O)cc21 (stereo partly drawn) [Example 2-25]
- EC50: 13000 nM

Compound: CCSc1ccc(O[C@@H]2CCN(c3cc(F)c4c(c3)C(=O)CC4)C2=O)cn1 [Example 1-15]
- EC50: 70 nM

Compound: CCC(C)CCOc1ccc(O[C@@H]2CCN(c3cc(F)c4c(c3)C(=O)CC4)C2=O)cn1 (stereo partly drawn) [Example 2-34]
- EC50: 23 nM

Reference: patent publication US8853412B2, “Pyrrolidinone derivatives as GPR119 modulators for the treatment of diabetes, obesity, dyslipidemia and related disorders” (Sanofi, priority 2012, dated 2014)
